Data from paper PMC11985910 (Nature Communications, 2025).
Read-outs that look alike come from different tables or passages of the source. Each block holds one compound with its values, some of them ahead of it.

Key:
[1] = test system: λ-carrageenan-induced leucocyte infiltration and oedema; assay: Carrageenan air pouch model; format: in vivo, mouse; conditions: for leucocyte influx into the air pouch at 4-h: oral SNT-8370 30, verdiperstat 15, PXS-4707 6, dexamethasone 10 mg/kg
MPO [2] = target: T1, MPO (Homo sapiens, UniProt P05164); assay: MPO LDL lipid peroxidation assay; format: biochemical
MPO [3] = target: MPO (Mus musculus, UniProt P11247); assay: Acute peritonitis; format: in vivo; conditions: for reduction of peritoneal MPO activity: oral 60 mg/kg; for effect on lavage fluid MPO protein concentration (ELISA): thioglycolate broth/zymosan A-treated mice
[4] = test system: thioglycolate broth-induced peritoneal leucocyte infiltration; assay: Peritonitis leucocyte trafficking model; format: in vivo, mouse; conditions: 6 h; oral SNT-8370 60, verdiperstat 60, PXS-4707 6 mg/kg
[5] = test system: LPS-induced lung leucocyte infiltration; assay: Acute lung injury; format: in vivo, mouse; conditions: 6 h post-LPS; oral SNT-8370 30, verdiperstat 30, PXS-4707 10 mg/kg
[6] = for drug concentration in peritoneal lavage fluid: 5 h after gavage
native human MPO = native human MPO (Homo sapiens, UniProt P05164); assay: MPO-catalysed H2O2 consumption, Amplex Red assay; format: biochemical
MPO [7] = target: T1, MPO; assay: MPO-catalysed H2O2 consumption, H2O2-specific electrode; format: biochemical
MPO [8] = target: T1, MPO; assay: MPO chlorination assay; format: biochemical
MPO [9] = target: T1, MPO; assay: MPO partition ratio assay; format: biochemical; conditions: mean ± SEM, n = 3; MPO 60 nM, 2 μM H2O2
MAO-A, human = MAO-A, human (Homo sapiens, UniProt P21397); assay: MAO-A activity assay; format: biochemical; conditions: compared to MPO or VAP-1
LOX, human = LOX, human (Homo sapiens, UniProt P28300); assay: LOX activity assay; format: biochemical; conditions: compared to MPO or VAP-1
HepG2 cells = format: cell-based; conditions: tested up to 100 μM in HepG2 cells
recombinant human VAP-1 = recombinant human VAP-1 (Homo sapiens, UniProt Q16853); format: biochemical; conditions: 30 μM, 40 min, 37 °C
human DAO = human DAO (Homo sapiens, UniProt P19801); format: biochemical; conditions: 30 μM, 40 min, 37 °C
[10] = test system: panel of 14 common transporters; format: in vitro ADME, human; conditions: 30 µM; 14 targets screened
in vivo = format: in vivo, C57Bl/6J mice; conditions: mouse
VAP-1 = VAP-1 (Mus musculus, UniProt O70423); assay: VAP-1 activity in adipose tissue; format: in vivo; conditions: 6 h; oral SNT-8370 60 mg/kg, PXS-4707 6 mg/kg
[11] = test system: myocardial ischaemia/reperfusion injury; assay: Myocardial infarction; format: in vivo, rat; conditions: 60 mg/kg oral twice daily, 4 weeks
[12] = test system: panel of 68 enzymes, receptors, ion channels and transporters; conditions: 10 µM; 68 targets screened
[13] = SNT-8370 30, verdiperstat 15, PXS-4707 6, dexamethasone 10 mg/kg

T1 sequence (P05164 279-745): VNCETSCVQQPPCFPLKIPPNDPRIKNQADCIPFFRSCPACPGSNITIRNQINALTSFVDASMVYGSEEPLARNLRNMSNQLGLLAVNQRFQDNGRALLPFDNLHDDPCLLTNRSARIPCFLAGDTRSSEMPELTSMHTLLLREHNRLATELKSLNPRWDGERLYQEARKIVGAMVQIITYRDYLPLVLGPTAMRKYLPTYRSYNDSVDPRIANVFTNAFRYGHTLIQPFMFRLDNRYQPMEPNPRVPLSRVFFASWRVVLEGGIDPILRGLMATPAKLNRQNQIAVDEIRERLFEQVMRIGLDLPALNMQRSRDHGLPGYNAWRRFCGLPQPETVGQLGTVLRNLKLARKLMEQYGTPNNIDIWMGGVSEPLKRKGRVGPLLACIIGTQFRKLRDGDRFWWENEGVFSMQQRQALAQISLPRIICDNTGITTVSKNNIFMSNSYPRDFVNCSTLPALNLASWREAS
T1 sequence (P05164 165-273): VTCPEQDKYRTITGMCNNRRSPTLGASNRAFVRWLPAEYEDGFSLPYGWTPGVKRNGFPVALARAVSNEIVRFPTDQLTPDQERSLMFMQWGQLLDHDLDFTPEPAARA
Chain of MPO (Mus musculus, UniProt P11247) (P11247 139-718): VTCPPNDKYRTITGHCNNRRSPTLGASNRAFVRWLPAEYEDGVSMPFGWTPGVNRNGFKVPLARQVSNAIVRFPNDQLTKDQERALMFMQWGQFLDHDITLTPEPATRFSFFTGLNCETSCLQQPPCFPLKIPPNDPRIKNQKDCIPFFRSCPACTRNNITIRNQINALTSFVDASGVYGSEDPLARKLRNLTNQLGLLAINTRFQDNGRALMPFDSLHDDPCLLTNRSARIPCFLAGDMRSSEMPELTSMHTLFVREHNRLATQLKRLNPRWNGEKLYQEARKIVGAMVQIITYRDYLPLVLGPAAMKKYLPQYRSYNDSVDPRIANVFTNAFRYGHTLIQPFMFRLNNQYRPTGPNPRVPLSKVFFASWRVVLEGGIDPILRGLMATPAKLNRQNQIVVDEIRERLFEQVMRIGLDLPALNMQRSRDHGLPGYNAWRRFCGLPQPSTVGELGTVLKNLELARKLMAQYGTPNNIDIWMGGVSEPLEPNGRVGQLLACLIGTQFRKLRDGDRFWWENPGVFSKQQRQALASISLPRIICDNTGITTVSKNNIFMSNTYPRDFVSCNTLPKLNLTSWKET
Chain of native human MPO (P05164 279-745): as the sequence (P05164 279-745) above
Chain of native human MPO (P05164 165-273): as the sequence (P05164 165-273) above
Chain of human DAO (P19801 20-751): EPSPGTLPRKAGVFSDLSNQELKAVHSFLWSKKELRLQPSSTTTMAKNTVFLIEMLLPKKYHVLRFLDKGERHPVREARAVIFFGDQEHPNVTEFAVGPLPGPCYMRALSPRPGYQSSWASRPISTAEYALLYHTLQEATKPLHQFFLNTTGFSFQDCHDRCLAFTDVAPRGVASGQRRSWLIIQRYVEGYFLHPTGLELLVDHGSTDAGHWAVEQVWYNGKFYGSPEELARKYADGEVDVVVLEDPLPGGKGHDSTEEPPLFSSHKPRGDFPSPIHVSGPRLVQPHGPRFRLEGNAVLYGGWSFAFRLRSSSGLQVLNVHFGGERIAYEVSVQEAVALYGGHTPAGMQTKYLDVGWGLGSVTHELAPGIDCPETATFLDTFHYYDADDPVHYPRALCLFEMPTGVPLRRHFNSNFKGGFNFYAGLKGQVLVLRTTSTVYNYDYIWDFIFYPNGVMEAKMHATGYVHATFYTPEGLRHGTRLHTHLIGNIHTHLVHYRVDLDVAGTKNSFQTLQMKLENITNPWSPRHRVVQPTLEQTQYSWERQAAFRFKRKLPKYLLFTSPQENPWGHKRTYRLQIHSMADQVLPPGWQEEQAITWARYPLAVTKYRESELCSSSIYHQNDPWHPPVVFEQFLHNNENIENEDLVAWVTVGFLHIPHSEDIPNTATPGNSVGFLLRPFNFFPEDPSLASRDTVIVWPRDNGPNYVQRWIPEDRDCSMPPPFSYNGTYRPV
Chain of VAP-1 (O70423 whole entry, the tested form may be a part): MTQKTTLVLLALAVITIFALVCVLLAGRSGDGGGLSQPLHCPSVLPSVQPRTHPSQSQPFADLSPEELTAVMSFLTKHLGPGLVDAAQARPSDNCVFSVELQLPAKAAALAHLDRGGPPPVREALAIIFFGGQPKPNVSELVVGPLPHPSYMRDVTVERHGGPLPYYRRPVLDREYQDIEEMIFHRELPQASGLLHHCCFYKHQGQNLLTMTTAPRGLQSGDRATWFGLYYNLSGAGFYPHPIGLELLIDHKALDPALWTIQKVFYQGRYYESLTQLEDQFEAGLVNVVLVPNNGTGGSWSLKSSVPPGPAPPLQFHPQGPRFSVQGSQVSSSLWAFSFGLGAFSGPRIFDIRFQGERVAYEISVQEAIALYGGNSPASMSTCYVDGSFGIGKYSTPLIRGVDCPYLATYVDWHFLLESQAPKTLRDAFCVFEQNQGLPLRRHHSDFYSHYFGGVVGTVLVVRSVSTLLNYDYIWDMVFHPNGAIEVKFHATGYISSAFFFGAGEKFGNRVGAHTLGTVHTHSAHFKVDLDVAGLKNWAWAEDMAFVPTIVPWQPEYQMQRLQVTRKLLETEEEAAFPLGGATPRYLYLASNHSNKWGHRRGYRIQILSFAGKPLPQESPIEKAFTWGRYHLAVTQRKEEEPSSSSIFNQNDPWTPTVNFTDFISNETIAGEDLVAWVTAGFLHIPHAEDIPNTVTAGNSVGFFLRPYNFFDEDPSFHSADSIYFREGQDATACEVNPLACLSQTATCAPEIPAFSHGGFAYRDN
Chain of LOX, human (P28300 169-417): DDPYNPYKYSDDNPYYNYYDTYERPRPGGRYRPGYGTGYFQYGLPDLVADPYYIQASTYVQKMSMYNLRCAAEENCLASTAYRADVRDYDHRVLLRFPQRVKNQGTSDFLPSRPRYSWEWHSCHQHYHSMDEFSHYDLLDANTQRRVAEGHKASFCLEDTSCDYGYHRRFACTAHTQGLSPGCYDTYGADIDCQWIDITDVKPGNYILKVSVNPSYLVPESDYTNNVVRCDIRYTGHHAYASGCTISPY
Chain of recombinant human VAP-1 (Q16853 34-763): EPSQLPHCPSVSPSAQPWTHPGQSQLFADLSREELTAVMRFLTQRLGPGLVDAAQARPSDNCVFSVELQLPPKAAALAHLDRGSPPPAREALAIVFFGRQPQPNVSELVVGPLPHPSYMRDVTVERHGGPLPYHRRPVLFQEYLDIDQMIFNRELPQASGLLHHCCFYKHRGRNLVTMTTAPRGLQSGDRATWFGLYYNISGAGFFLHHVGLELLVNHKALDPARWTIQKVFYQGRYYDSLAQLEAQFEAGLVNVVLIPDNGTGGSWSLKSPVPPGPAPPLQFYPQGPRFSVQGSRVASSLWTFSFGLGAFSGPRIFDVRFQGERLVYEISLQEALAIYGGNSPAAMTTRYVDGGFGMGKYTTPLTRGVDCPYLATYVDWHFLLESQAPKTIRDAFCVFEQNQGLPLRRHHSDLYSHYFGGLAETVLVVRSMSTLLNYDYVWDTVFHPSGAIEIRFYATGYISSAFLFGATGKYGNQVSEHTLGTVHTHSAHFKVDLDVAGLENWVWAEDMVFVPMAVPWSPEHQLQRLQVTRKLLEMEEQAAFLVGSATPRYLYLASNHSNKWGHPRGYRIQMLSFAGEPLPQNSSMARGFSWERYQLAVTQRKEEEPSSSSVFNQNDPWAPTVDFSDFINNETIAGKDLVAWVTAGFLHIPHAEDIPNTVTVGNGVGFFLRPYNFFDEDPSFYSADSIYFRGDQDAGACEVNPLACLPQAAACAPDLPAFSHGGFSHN
Chain of MAO-A, human (P21397 whole entry): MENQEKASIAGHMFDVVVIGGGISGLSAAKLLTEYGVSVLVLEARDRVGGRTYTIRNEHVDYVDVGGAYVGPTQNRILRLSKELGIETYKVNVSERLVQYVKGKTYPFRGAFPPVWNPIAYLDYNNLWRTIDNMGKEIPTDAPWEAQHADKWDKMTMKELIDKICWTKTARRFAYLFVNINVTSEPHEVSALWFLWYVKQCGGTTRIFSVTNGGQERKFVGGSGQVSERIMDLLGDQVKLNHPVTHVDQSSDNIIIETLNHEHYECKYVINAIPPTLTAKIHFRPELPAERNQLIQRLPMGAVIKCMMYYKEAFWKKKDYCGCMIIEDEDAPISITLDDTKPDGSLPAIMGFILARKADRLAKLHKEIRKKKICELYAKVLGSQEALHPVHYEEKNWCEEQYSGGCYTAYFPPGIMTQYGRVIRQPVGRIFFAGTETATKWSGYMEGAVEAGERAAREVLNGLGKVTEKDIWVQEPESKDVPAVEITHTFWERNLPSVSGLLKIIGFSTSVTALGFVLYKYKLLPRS

Structure (SMILES): C[C@@H]1C[C@H]2[C@@H]3CCC4=CC(=O)C=C[C@]4(C)[C@@]3(F)[C@@H](O)C[C@]2(C)[C@@]1(O)C(=O)CO [dexamethasone]
air pouch exudate volume at 12-h [1, 13]: significantly reduced
leucocyte influx into the air pouch at 4-h [1]: significantly reduced

IC50 (MPO [2]): 600 nM
reduction of peritoneal MPO activity (MPO [3]): > 50%
effect on lavage fluid MPO protein concentration (ELISA) (MPO [3]): no effect
drug concentration in peritoneal lavage fluid ([6]; oral 60 mg/kg): > 10 ng/mL
Structure (SMILES): CC(C)OCCn1c(=S)[nH]c(=O)c2[nH]ccc21 [Verdiperstat, reference compound]
neutrophils in the peritoneum [4]: Neither of the monotherapy treatments showed a significant effect
total immune cells (leucocytes) in the peritoneum [4]: Neither of the monotherapy treatments showed a significant effect
air pouch exudate volume at 12-h [1, 13]: neither verdiperstat nor PXS-4707, significantly reduced
leucocyte influx into the air pouch at 4-h [1]: significantly reduced
lung infiltration of neutrophils (BALF) [5]: non-significant downward trends
lung infiltration of total leucocytes (BALF) [5]: non-significant downward trends

Structure (SMILES): NC/C(=C\F)COc1cccc(Cn2c(=S)[nH]c(=O)c3[nH]cnc32)c1 [SNT-8370, (E)-3-(3-((2-(aminomethyl)-3-fluoroallyl)oxy)benzyl)-2-thioxo-1,2,3,7-tetrahydro-6H-purin-6-one]
MPO IC50 more potent than AZD5904 (native human MPO): ~ 3 fold
MPO IC50 more potent than verdiperstat (native human MPO): ~ 2 fold
fold lower IC50 than verdiperstat or PF06282999, H2O2 consumption (MPO [7]): 5-8 fold
fold lower IC50 than verdiperstat or PF06282999, HOCl production (MPO [8]): 2–5 fold
IC50 (MPO [2]): 20 nM
fold lower IC50 than verdiperstat, LDL lipid peroxidation (MPO [2]): 30 fold
partition ratio for MPO inhibition (MPO [9]): 15.7 ± 2.4
selectivity index over MAO-A (MAO-A, human): > 1000 fold
selectivity index over LOX (LOX, human): > 1000 fold
Cell health (cytotoxicity) (HepG2 cells): no toxicity
Substrate turnover, VAP-1 (recombinant human VAP-1): No oxidative turnover
Substrate turnover, DAO (human DAO): no turnover observed
Eurofins Transporter screen, hits (>50% inhibition) [10]: no significant inhibition
half-life (in vivo; C57Bl/6J, in vivo, po): 2 to 4 h
time of highest drug concentrations after oral gavage (in vivo): 1 h
drug in the brain (in vivo; oral gavage): No drug was detectable
effect on peritoneal MPO activity (MPO [3]; oral 10 mg/kg): no effect
effect on peritoneal MPO activity (MPO [3]; oral 30 mg/kg): no effect
reduction of peritoneal MPO activity (MPO [3]): > 50%
effect on lavage fluid MPO protein concentration (ELISA) (MPO [3]): no effect
neutrophils in the peritoneum [4]: significantly reduced
total immune cells (leucocytes) in the peritoneum [4]: significantly reduced
inhibition of in vivo VAP-1 activity in adipose tissue (VAP-1): > 90%
air pouch exudate volume at 12-h ([1]; SNT-8370 10 mg/kg): significantly reduced
air pouch exudate volume at 12-h [1, 13]: significantly reduced
leucocyte influx into the air pouch at 4-h [1]: significantly reduced
lung infiltration of neutrophils (BALF) [5]: significantly reduced
lung infiltration of total leucocytes (BALF) [5]: significantly reduced
cardiac fibrosis (picrosirius red, Masson's trichrome, periostin) [11]: significantly reduce
ejection fraction post-MI [11]: prevented the significant post-MI reduction
fractional shortening post-MI [11]: prevented the significant post-MI reduction
Eurofins PanLabs screen, hits (>50% inhibition) [12]: No significant off-targets
drug concentration in peritoneal lavage fluid ([6]; oral 10 mg/kg): 1.1 ng/mL
drug concentration in peritoneal lavage fluid ([6]; oral 30 mg/kg): 1.5 ng/mL
drug concentration in peritoneal lavage fluid, molar equivalent ([6]; oral 60 mg/kg): 170 nM
drug concentration in peritoneal lavage fluid ([6]; oral 60 mg/kg): ~ 60 ng/mL
drug concentration in peritoneal lavage fluid, molar equivalent ([6]; oral 10 and 30 mg/kg): < 4 nM
